Reference: patent publication EP4667007A2, “NOVEL ASSOCIATION OF GASTRODIA ELATA AND VITAMIN B” (Futura S.r.l., priority 2024, dated 2025)
Where two headings read alike, the source gives them in different places.

Legend:
Caco-2 cells [1] = assay: In vitro intestinal barrier model, absorption with fluorescent tracer (Transwell)
neuregulin 1 (NRG1) = assay: 3D EngNT under PNI conditions, NRG1 ELISA; type: cell-based, rat; conditions: GGF 200 ng/mL, result in words
Procedure: To replicate a strong demyelination before stimulation with the two formulations and the single drugs, the 3D EngNT was pre-treated with 200 ng/mL glial growth factor 2 (GGF) starting on day 14 of maturation. This was necessary since the study needed to replicate the peripheral nerve tissue damage in vitro. Therefore, further studies were conducted to investigate the effects on cell viability and ROS production (Figures 5A-B). […] In contrast, both the individual components and formulations were able not only to re-establish physiological conditions, but also to induce a significant increase in cell viability and a decrease in ROS production (p<0.05). […]
This study was carried out in three different phases; the starting point of the study protocol was intended to study the absorption and transport processes of the novel formulation and individual components through the intestinal barrier using a 3D in vitro model with Caco-2 cells. […] Finally, in the third phase, peripheral nerve damage and demyelination were simulated in vitro, treating 3D EngNT with GGF 200ng/ml, to explore cell survival and mitochondrial activity, oxidative stress and ROS quantification, the inflammatory processes involved in neuropathy, nociceptive pathways for pain control, and the main pathways involved in the processes of myelin sheath protection and neurite formation. […]

Caco-2 cells [2] = conditions: human

Absorption Rate (Caco-2 cells [2]; 3 h) [%]	Absorption Rate (Caco-2 cells [2]; 4 h) [%]	Absorption Rate (Caco-2 cells [2]; 5 h) [%]	Absorption Rate (Caco-2 cells [2]; 6 h) [%]	Compound	Absorption Rate (Caco-2 cells [1]; 2h, Gastrodin 25µM, Citicoline 250mM, Acetyl-L-Carnitine 7.5µM, Vit. B group 1mg/mL, Lipoic Acid 50µM) [%]	Absorption Rate (Caco-2 cells [1]; 3h, same concentrations) [%]	Absorption Rate (Caco-2 cells [1]; 4h, same concentrations) [%]	Absorption Rate (Caco-2 cells [1]; 5h, same concentrations) [%]	Absorption Rate (Caco-2 cells [1]; 6h, same concentrations) [%]	NRG1 activity (neuregulin 1 (NRG1))
				CC(=O)O[C@H](CC(=O)[O-])C[N+](C)(C)C [Acetyl-L-Carnitine, (R)-3-acetyloxy-4-trimethylammonium-butanoate]	69.49	77.35	80.65	69.90	54.16	
49.27	53.77	51.71	41.36	O=C(O)CCCCC1CCSS1 (stereo not shown) [Lipoic acid]						not able to improve it compared to GGF 200ng/mL
